Measured values from the OPERA property sets (Mansouri et al. 2018).

Details: for log10 BCF / log10 biotransformation half-life (days): fish

Structure (SMILES) | boiling point | melting point | other results
C#CC(OC(=O)C1C(C=C(C)C)C1(C)C)/C(C)=C/CC (configuration not stated) | 296 °C | – | log10 vapour pressure (mmHg): -3.98
O=C1OCc2ccccc21 | 290 °C | 75 °C | log10 vapour pressure (mmHg): -2.7; ready biodegradability: readily biodegradable
CC(C)(Cl)CCCl | 147 °C | – | –
CC[N+]1(CC)CCC(OC(=O)C(O)(c2ccccc2)c2ccccc2)C1.[Br-] (configuration not stated) | – | 204 °C | –
ClC=CCl | 55 °C | -57 °C | log10 Henry constant (atm·m³/mol): -2.39; log10 vapour pressure (mmHg): 2.3; ready biodegradability: not readily biodegradable
CC(=C(CCO)SSC(CCO)=C(C)N(C=O)Cc1cnc(C)nc1N)N(C=O)Cc1cnc(C)nc1N | – | 177 °C | –
Nc1ccccc1C=O | – | 39 °C | –
CCCCCCCCCCCCCCCCCCOS(=O)(=O)[O][Na] | – | – | ready biodegradability: readily biodegradable
COc1c2ccoc2cc2oc(CO[C@@H]3O[C@H](CO)[C@@H](O)[C@H](O)[C@H]3O)cc(=O)c12 | – | 179 °C | –
CC(C)CCC(C)C(C)C (configuration not stated) | 156 °C | – | –
CCOc1ccccc1OS(=O)(=O)NC(O)=Nc1nc(OC)cc(OC)n1 | – | 145 °C | –
CC(C)CCSSCCC(C)C | 247 °C | – | –
C=C=C | -34.4 °C | -136 °C | log10 vapour pressure (mmHg): 3.73
CN1CCN(CCCN2c3ccccc3Sc3ccccc32)CC1 | – | 52 °C | –
CCCCCCCCCCC1CCCCC1 | 299 °C | -1.7 °C | log10 vapour pressure (mmHg): -2.99
Cc1ccnc(-c2cc(C)ccn2)c1 | – | 175 °C | –
FC(Cl)Cl | 8.9 °C | -135 °C | log10 vapour pressure (mmHg): 3.13
CCOC(=O)C(O)(c1ccc(Cl)cc1)c1ccc(Cl)cc1 | – | 37 °C | log10 Koc (L/kg): 3.3; log10 vapour pressure (mmHg): -5.66; ready biodegradability: not readily biodegradable; log10 BCF: 2.68; log10 biotransformation half-life (days): -0.08
CCCCCC(C)N (configuration not stated) | 142 °C | – | –
CC(CCO)CCCC(C)(C)O (configuration not stated) | 265 °C | – | –
Sc1nc2ccccc2s1 | – | 181 °C | log10 Koc (L/kg): 2.25; ready biodegradability: readily biodegradable; log10 BCF: 0.9
CC(CCl)OP(=O)(OC(C)CCl)OC(C)CCl (configuration not stated) | – | -40 °C | ready biodegradability: not readily biodegradable; log10 BCF: 0.9; log10 biotransformation half-life (days): -1.31
O=C(O)C(Br)C(Br)C(=O)O (configuration not stated) | – | – | ready biodegradability: not readily biodegradable; log10 BCF: 0.81
C=C[C@H]1C[N@@]2CC[C@H]1C[C@H]2[C@H](O)c1ccnc2ccc(OC)cc12.Cl | – | 159 °C | –
CCCC(C)O (configuration not stated) | 119 °C | -73 °C | log10 Henry constant (atm·m³/mol): -4.83; log10 vapour pressure (mmHg): 0.786; ready biodegradability: readily biodegradable
FC(F)(Cl)C(Cl)(Cl)C(F)(F)Cl | 112 °C | -42.9 °C | –

Structure (SMILES) | boiling point | melting point | other results
O=C(CCCN1CCC(O)(c2ccc(Br)cc2)CC1)c1ccc(F)cc1 | – | 155 °C | –
c1ccc2c(c1)Sc1ccccc1N2CC1CN2CCC1CC2 (configuration not stated) | – | 130 °C | –
O=C=Nc1cccc(Cl)c1 | – | -4 °C | log10 vapour pressure (mmHg): -0.712
FC(OC(F)(F)C(F)(F)C(F)(F)F)C(F)(F)F (configuration not stated) | 41 °C | – | –
CCCC[P+](CCCC)(CCCC)Cc1ccc(Cl)cc1Cl.[Cl-] | – | 117 °C | log10 vapour pressure (mmHg): -6.15
C[Si](C)(C)CCCO | 141 °C | – | –
COc1cc(NC(=O)CC(C)=O)c(OC)cc1Cl | – | – | ready biodegradability: not readily biodegradable
CN(C)c1cccc(O)c1 | 266 °C | 86 °C | –
CCOC(=O)C(C(=O)OCC)C(C(=O)OCC)C(=O)OCC | – | 77 °C | –
C=CCC(=C)C | 56 °C | – | –
CCOC(O)C(Cl)(Cl)Cl (configuration not stated) | 116 °C | 56.5 °C | –
COO | – | – | log10 Henry constant (atm·m³/mol): -5.34
CC(C)=CC(=O)O | 197 °C | 69.5 °C | –
CC(C)OC(=O)OOC(C)(C)C | – | – | ready biodegradability: not readily biodegradable
C=COCCO | 142 °C | – | –
CCC(C)(O)CCCC(C)C (configuration not stated) | 196 °C | 31.5 °C | –
COP(=O)(NC(C)=O)SC (configuration not stated) | – | 88 °C | log10 Koc (L/kg): 0.3; log10 vapour pressure (mmHg): -5.77; ready biodegradability: readily biodegradable
CCCCl | 46.5 °C | -123 °C | log10 Koa: 2.24; log10 vapour pressure (mmHg): 2.54
O=C(O)CCN1C(=O)C=CC1=O | – | 104 °C | –
Nc1cc(Cl)ccc1O | – | 140 °C | –
CCc1ccc(OC)cc1 | 198 °C | – | –
OB(c1ccccc1)c1ccccc1 | – | 57.5 °C | –
O=[N+]([O-])c1ccccc1CO | 270 °C | 74 °C | –
ClCC(Cl)C(Cl)Cl (configuration not stated) | 180 °C | – | –
C=CCCCCCCCCC(=O)OC | 248 °C | -27.5 °C | –
CC(C)O | 82.3 °C | -89.5 °C | log10 Henry constant (atm·m³/mol): -5.09; log10 vapour pressure (mmHg): 1.66; ready biodegradability: readily biodegradable

Structure (SMILES) | boiling point | melting point | other results
CCCCCC#CCO | – | -18 °C | –
COc1ccc(Cl)c(N)c1 | – | 27 °C | –
O=C(O)CCCCC(=O)O | 338 °C | 153 °C | log10 vapour pressure (mmHg): -6.5; ready biodegradability: readily biodegradable
C=CC(=O)OCCOC(=O)C=C | – | – | log10 vapour pressure (mmHg): -1.18
C1SSCSSS1 | – | 60.5 °C | –
O=C(c1ccccc1)c1cccc([N+](=O)[O-])c1 | – | 95 °C | –
CCCC(C)CC(C)CC (configuration not stated) | 159 °C | – | –
Cc1cccc(C)c1N(Cn1cccn1)C(=O)CCl | – | 85 °C | log10 Henry constant (atm·m³/mol): -9.25
Brc1cn[nH]c1 | 255 °C | 94.5 °C | –
CN1CC1 | 27.5 °C | – | –
CCOC(=O)C=C(C)C | 154 °C | – | –
O=[N+]([O-])c1ccc(Oc2ccc(C(F)(F)F)cc2[N+](=O)[O-])cc1 | – | 94 °C | –
CC(C)NCC(O)COc1ccc(COCCOC(C)C)cc1 (configuration not stated) | – | 100 °C | –
O=C(O)c1ccccc1F | – | 126 °C | –
FC(Cl)(Cl)Br | 52 °C | -106 °C | –
CC(C)C=O | 64.5 °C | -65.9 °C | log10 vapour pressure (mmHg): 2.24; ready biodegradability: readily biodegradable
CCC1CCCCC1 | 132 °C | -111 °C | log10 biodegradation half-life (days): 0.301; log10 vapour pressure (mmHg): 1.11; ready biodegradability: not readily biodegradable
CCC(C)(C#N)/N=N/C(C)(C#N)CC (configuration not stated) | – | 50 °C | –
O=C(O)c1ccc([N+](=O)[O-])c([N+](=O)[O-])c1 | – | 166 °C | log10 Koc (L/kg): 1.53
CCS(=O)(=O)O | – | -17 °C | –
O=C(C1CCCCC1)N1CC(=O)N2CCc3ccccc3C2C1 (configuration not stated) | – | 136 °C | –
O=[N+]([O-])c1ccccc1Br | 258 °C | 43 °C | –
CNC(=O)Oc1ccc2c(c1)[C@]1(C)CCN(C)OC1N2C (some centres not stated) | – | 129 °C | –
c1ccc2c(c1)-c1cccc3cccc-2c13 | 384 °C | – | log10 Henry constant (atm·m³/mol): -5.05; log10 Koa: 8.88; log10 Koc (L/kg): 4.8; log10 biodegradation half-life (days): 2.17; log10 vapour pressure (mmHg): -5.04; ready biodegradability: not readily biodegradable; log10 BCF: 3.56; log10 biotransformation half-life (days): -0.02
Nc1ccc2ncsc2c1 | – | 87 °C | –
Ic1ccc(-c2ccccc2)cc1 | 320 °C | 114 °C | –

Structure (SMILES) | boiling point | melting point | other results
ClC(Cl)(Br)C(Cl)(Cl)Br | – | 202 °C | –
Clc1cc(Cl)c2c(Cl)ccc(Cl)c2c1 | – | – | log10 Koa: 8.28
CC(/C=C/C=C(C)/C=C/[C@@]12O[C@]1(C)C[C@@H](O)CC2(C)C)=C\C=C\C=C(C)\C=C\C=C(C)\C=C\[C@@]12O[C@]1(C)C[C@@H](O)CC2(C)C | – | 208 °C | –
CCCCCCCCCCCCCCCCCC(=O)OCCC(C)C | – | 25.5 °C | –
COC(=O)NC(=S)Nc1ccccc1NC(=S)NC(=O)OC | – | – | log10 Koc (L/kg): 3.25; log10 vapour pressure (mmHg): -7.15
OCCCc1cccnc1 | 284 °C | – | –
c1ccc2nc(-c3ccc4ccccc4n3)ccc2c1 | – | 194 °C | log10 Koc (L/kg): 4.02
CCCCCCCCC(=O)OC | 214 °C | – | –
Cc1ccc(C(C)C)c(C)c1 | 197 °C | -82 °C | –
C[Si](C)(C)O[Si](C)(C)O[Si](C)(C)O[Si](C)(C)O[Si](C)(C)O[Si](C)(C)O[Si](C)(C)C | 270 °C | -78 °C | log10 vapour pressure (mmHg): -2.5
Nc1nc(N)nc(-c2ccccc2)n1 | – | 226 °C | ready biodegradability: not readily biodegradable
COS(=O)(=O)c1ccc([N+](=O)[O-])cc1 | – | 94 °C | –
O=Cc1cccc(F)c1 | 173 °C | – | –
O=C(NCO)NCO | – | 126 °C | –
C=C[C@H]1CNCC[C@H]1CCC(=O)c1ccnc2ccccc12 | – | 59 °C | –
C=CCC1(C(C)C)C(=O)NC(=O)NC1=O | – | 141 °C | –
BrC(Br)(Br)Br | 190 °C | 90.1 °C | log10 vapour pressure (mmHg): -0.569
CCC1COC(Cn2cncn2)(c2ccc(Cl)cc2Cl)O1 (configuration not stated) | – | 84 °C | –
CC1=C(O)C(=O)[C@@H]2O[C@@H]2C1=O | – | 127 °C | –
C=CC1CN2CCC1CC2C(=O)c1ccnc2ccc(OC)cc12 (configuration not stated) | – | 108 °C | –
O=C(O)CCCCC1CCSS1 (configuration not stated) | – | 60.5 °C | –
COc1cc(C=O)cc(OC)c1 | – | 46.3 °C | –
CCCCCCCCCCc1ccc(O)c(/C=N/O)c1 | – | – | ready biodegradability: readily biodegradable
CCCCC(CC)(CO)CO | 262 °C | 43.8 °C | log10 vapour pressure (mmHg): -4; ready biodegradability: not readily biodegradable
Nc1ccc2ccc3cccc4ccc1c2c34 | – | 116 °C | –
Cc1cccc(-c2ccccc2C)c1 | 270 °C | – | –

Structure (SMILES) | boiling point | melting point | other results
O=[N+]([O-])c1ccc(Cl)c(S(=O)(=O)[O][Na])c1 | – | – | log10 BCF: 0.48
OC[C@H]1O[C@H](OC[C@H]2O[C@H](O)[C@H](O)[C@@H](O)[C@@H]2O)[C@H](O)[C@@H](O)[C@H]1O | – | 86 °C | –
C=CC(=O)NCO | – | 74.5 °C | –
FC(F)(F)N1C(F)(F)C(F)(F)OC(F)(F)C1(F)F | 51 °C | -80 °C | –
CNC(=O)O/N=C/C(C)(C)S(C)(=O)=O | – | 141 °C | log10 Koc (L/kg): 0.42; log10 vapour pressure (mmHg): -4.05
CCCC(CC)CCC | 141 °C | – | –
Nc1ccc(Sc2ccc(N)cc2)cc1 | 361 °C | 108 °C | log10 Koc (L/kg): 2.04
CCCCC#CCCCCC | 198 °C | -74.1 °C | –
C=CC=CCC | 73.5 °C | – | log10 vapour pressure (mmHg): 2.11
O=C(O)c1ccsc1 | – | 138 °C | –
NC(=O)CN1Cc2ccccc2OC1=O | – | 204 °C | –
O=C(O)c1ccc2ccccc2c1O | – | 195 °C | –
O=S(=O)(Cl)c1ccc2ccccc2c1 | – | 81 °C | –
CCc1cc2c(cc1C(C)=O)C(C)(C)CCC2(C)C | – | 46.5 °C | –
c1ccc(Cc2c3ccccc3c(Cc3ccccc3)c3ccccc23)cc1 | – | 246 °C | –
Cc1nc2ccccc2nc1C | – | 105 °C | –
C=CC(=O)OCCC | – | – | log10 vapour pressure (mmHg): 1.16
Oc1c(Cl)cccc1-c1ccccc1 | – | 6 °C | –
CCCCCCC(C)O (configuration not stated) | – | – | log10 Henry constant (atm·m³/mol): -3.91; log10 vapour pressure (mmHg): -0.616; ready biodegradability: readily biodegradable
CC(N)CO (configuration not stated) | 174 °C | – | –
CC(=O)Oc1ccc(OC(C)=O)c(-c2ccccc2)c1 | – | 68 °C | –
O=Cc1c(Cl)cccc1Cl | – | 71.5 °C | ready biodegradability: not readily biodegradable
CCCC[C@@H](O)CCC | 175 °C | – | log10 vapour pressure (mmHg): -0.507
Clc1cc2oc3cc(Cl)c(Cl)cc3c2cc1Cl | – | 227 °C | log10 Henry constant (atm·m³/mol): -4.78; log10 Koa: 10; log10 BCF: 3.61; log10 biotransformation half-life (days): 0.56
